From paper PMC6314990 (Forensic Toxicology, 2018)

Experiments:
[1] = tested on: pentobarbital-induced sleep in mice; assay: Cannabinoid-induced potentiation of pentobarbital-induced sleep and effect of CB1 receptor antagonists; format: in vivo, ddY mice; conditions: for Prolongation of pentobarbital-induced sleep compared with vehicle-pretreated group (Veh + Veh): cannabinoid 10 mg/kg i.v., pentobarbital 40 mg/kg i.p. 15 min later, male ddY mice, n = 8
Method: For the pharmacological studies, cannabinoids and antagonists were suspended in saline containing 1% Tween 80. Sodium pentobarbital was dissolved in saline and injected intraperitoneally (i.p.; 40 mg/kg) for the mice. Male ddY mice weighing 20–25 g were housed in groups of 8. All animals were kept in a temperature-controlled (25 °C) environment with a 12-h light–dark cycle (lights on at 7:00 a.m.) and received food and water ad libitum. […] One percent Tween 80-saline solution was injected instead of cannabinoids or antagonists for the vehicle treated group as a control.

CB1 receptor = CB1 receptor (Mus musculus, UniProt P47746)
Sequence of CB1 receptor (P47746 whole entry): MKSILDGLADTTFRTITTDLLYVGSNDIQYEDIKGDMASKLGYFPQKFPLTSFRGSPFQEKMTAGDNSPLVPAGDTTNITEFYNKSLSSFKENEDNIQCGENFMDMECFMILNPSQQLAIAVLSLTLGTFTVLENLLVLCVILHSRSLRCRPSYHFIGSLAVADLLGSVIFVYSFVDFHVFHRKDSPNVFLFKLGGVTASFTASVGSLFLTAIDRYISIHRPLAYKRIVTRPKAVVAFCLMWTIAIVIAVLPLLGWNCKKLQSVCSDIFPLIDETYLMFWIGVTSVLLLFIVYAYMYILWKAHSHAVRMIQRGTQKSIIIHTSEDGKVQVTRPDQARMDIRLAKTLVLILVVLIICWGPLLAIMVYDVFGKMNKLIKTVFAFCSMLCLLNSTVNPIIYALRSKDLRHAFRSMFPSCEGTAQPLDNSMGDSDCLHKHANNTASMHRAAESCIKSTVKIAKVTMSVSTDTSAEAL
Method: Crude synaptic membranes from ddY male mice brains were prepared according to the method of Zukin et al. [32] with a slight modification. Briefly, whole mice brains were homogenized in 15 volumes of ice-cold 0.32 M sucrose for 1 min with a Polytron homogenizer (Kinematica, Lucerne, Switzerland), followed by centrifugation at 1000 g for 10 min at 4 °C. The pellet was discarded and the supernatant was centrifuged at 20000g for 20 min at 4 °C. This pellet was homogenized for 15 s in 40 volumes of ice-cold distilled water and further dispersed with a Polytron homogenizer. The suspension was then centrifuged at 8000g for 20 min at 4 °C. The supernatant and the soft buffy upper layer of the pellet were carefully collected and combined. This fraction was then centrifuged at 48000g for 20 min at 4 °C.
A ligand binding assay for the cannabinoid receptor was performed according to the method of Devane et al. [34] and Compton et al. [16]. […] The filters were then placed in glass scintillation vials with 10 ml of Clearsol and the radioactivity was counted using a liquid scintillation counter (LSC-6100, Aloka, Tokyo, Japan). […] The inhibitory constant (Ki value) was calculated according to the method of Speth et al. [35].

Structure (SMILES): Cc1c(C(=O)NN2CCCCC2)nn(-c2ccc(Cl)cc2Cl)c1-c1ccc(I)cc1 [AM251, N-(piperidin-1-yl)-5-(4-iodophenyl)-1-(2,4-dichlorophenyl)-4-methyl-1H-pyrazole-3-carboxamide]
- Effect of antagonist on potentiating effect of ∆9-THC on pentobarbital-induced sleep, low dose ([1]; antagonist 2 mg/kg i.v., ∆9-THC 10 mg/kg i.v., pentobarbital 40 mg/kg i.p., mice): attenuated
- Effect of antagonist pretreatment on potentiation of pentobarbital-induced sleep by ∆9-THC ([1]; antagonist 2–10 mg/kg i.v. 10 min before ∆9-THC 10 mg/kg i.v., pentobarbital 40 mg/kg i.p., mice): decreased dose-dependently
- Effect of antagonist alone (antagonist + Veh) on pentobarbital-induced sleeping time ([1]; without ∆9-THC, pentobarbital 40 mg/kg i.p., mice): no change in pentobarbital-induced sleeping time

Structure (SMILES): C=C(C)[C@@H]1CCC(C)=C[C@H]1c1c(O)cc(CCCCC)cc1O [CBD, cannabidiol]
- Prolongation of pentobarbital-induced sleep compared with vehicle-pretreated group (Veh + Veh) [1]: 1.8 fold

Structure (SMILES): CCCC(C)C1(CC)C(=O)NC(=O)NC1=O (stereo not shown) [Pentobarbital, sodium pentobarbital]
- Specific [3H]CP55940 binding (CB1 receptor; pentobarbital 1 mM added to the reaction mixture, control 0.055 ± 0.002, N.S. vs control): 0.050 ± 0.003 ^N.S. pmol/mg protein
- Effect on specific [3H]CP55940 binding (CB1 receptor; pentobarbital 1 mM, mouse brain synaptic membrane): did not affect specific [^3H]CP55940 binding

Structure (SMILES): CCCCCc1cc(O)c2c(c1)OC(C)(C)[C@@H]1CCC(C)=CC21 (stereo partly shown) [∆^9-THC, ∆^9-tetrahydrocannabinol]
- Prolongation of pentobarbital-induced sleep compared with vehicle-pretreated group (Veh + Veh) [1]: 3.3 fold
